Laboratory results from US8119355B2, “Biomarkers for cancer sensitivity and uses thereof” (The UAB Research Foundation, priority 2006, dated 2012).

Experiments:
[1] = tested on: COLO 205 tumors; assay: COLO 205 xenograft model, tumor size; assay type: in vivo, athymic nude mice; conditions: TRA-8 10 mg/kg intraperitoneally days 16 and 20; CPT-11 33 mg/kg intravenously days 17 and 21
Experimental: Preparation of sera from tumor-bearing mice. COLO 205 cells (1×10^7) were inoculated subcutaneously into athymic nude mice on day 0. The mice were grouped randomly. Each of the groups consisted of 3 mice. TRA-8 (10 mg/kg) was administered intraperitoneally to mice on days 16 and 20. CPT-11 (33 mg/kg) was administered intravenously to mice on days 17 and 21. Length and width of solid tumors were measured twice weekly. Tumor volume (mm^3) was calculated as axb^2/2, where a and b are the length and the width (mm) of the tumor, respectively. Tumor size was determined as a percentage relative to the tumor volume on day 16. Sera were obtained from the tumor-bearing mice on day 23.

[2] = tested on: COLO 205 human colon cancer cells; assay: cell viability, ATPLite assay, serum-free condition; assay type: cell-based; conditions: for effect on cell viability: 48 h; for cells killed: incubation time (24 or 48 h) not given
Experimental: (§1) Cell viability analysis: To examine the effect of the serum, the cells (2×10^4) were plated onto well of a 96-well microplate and cultured in complete culture medium at 37° C. for 24 h, washed with serum-free medium, and further incubated in 100 μl of complete medium or serum-free medium at 37° C. for the indicated times. Cell viability was assessed by measurement of cellular ATP levels using ATPlite™-M luminescence assay system (PerkinElmer, Inc., Waltham, Mass.) according to the manufacturer's instructions, and determined as a percentage relative to the luminescence value of cells, which were cultured in complete medium, used as a control. The assay of cell viability was repeated in triplicate experiments. Data were statistically analyzed by the Student t test. In case of the Student t test, if variance of homogeneity was rejected (P<0.05 by F test), the Welch test was applied. Probability values (P-values) less than 0.05 were considered to be statistically significant. All P-values were rounded to four decimal places.
(§2) To evaluate the effect of TRA-8 in serum-free condition, the cells were cultured as described above, washed with serum-free medium and treated with or without TRA-8 or chemotherapeutic agents in 100 μl of serum-free medium at 37° C. for the indicated times. Cell viability was assessed using ATPLite™ assay (PerkinElmer, Inc., Waltham, Mass.) and determined as a percentage relative to the luminescence value of untreated cells used as a control. The assay of cell viability was repeated in triplicate experiments.

[3] = tested on: WiDr human colon cancer cells; assay: as above; assay type: cell-based; conditions: for cells killed: incubation time (24 or 48 h) not given
Experimental: as §1, §2

| Compound | antitumor efficacy (tumor size) [1] | effect on cell viability ([2]; 50 μM agent) | cells killed ([2]; 50 μM agent) [%] | effect on cell viability ([3]; 50 μM oxaliplatin, 24 h) | effect on cell viability ([3]; 50 μM oxaliplatin, 48 h) | cells killed ([3]; 50 μM oxaliplatin) [%] | effect on cell viability ([2]; 1 μM paclitaxel) | cells killed ([2]; 1 μM paclitaxel) [%] | effect on cell viability ([3]; 1 μM paclitaxel, 48 h) | cells killed ([3]; 1 μM paclitaxel) [%] |
| --- | --- | --- | --- | --- | --- | --- | --- | --- | --- | --- |
| CCc1c2c(nc3ccc(OC(=O)N4CCC(N5CCCCC5)CC4)cc13)-c1cc3c(c(=O)n1C2)COC(=O)[C@]3(O)CC [CPT-11] | not antitumor effects | significant effect | 71 |  |  |  |  |  |  |  |
| O=C1[O][Pt]2([NH][C@@H]3CCCC[C@H]3[NH]2)[O]C1=O [oxaliplatin] |  | affected cell viability | 41 | significant effect | affected cell viability | 99 |  |  |  |  |
| CC(=O)O[C@H]1C(=O)[C@@]2(C)[C@H]([C@H](OC(=O)c3ccccc3)[C@]3(O)C[C@H](OC(=O)[C@H](O)[C@@H](NC(=O)c4ccccc4)c4ccccc4)C(C)=C1C3(C)C)[C@]1(OC(C)=O)CO[C@@H]1C[C@@H]2O [paclitaxel] |  |  |  |  |  |  | affected cell viability | 62 | affected cell viability | 72 |
